# From US8420823B2, “Long-chain fatty acyl elongase inhibitor comprising arylsulfonyl derivative as active ingredient” (MSD K.K., priority 2008, dated 2013)
# Counter-ions that a name gives are not always drawn.
# Target: T1, human LCE (Homo sapiens, UniProt Q9H5J4)
# T1 sequence (Q9H5J4 1-265): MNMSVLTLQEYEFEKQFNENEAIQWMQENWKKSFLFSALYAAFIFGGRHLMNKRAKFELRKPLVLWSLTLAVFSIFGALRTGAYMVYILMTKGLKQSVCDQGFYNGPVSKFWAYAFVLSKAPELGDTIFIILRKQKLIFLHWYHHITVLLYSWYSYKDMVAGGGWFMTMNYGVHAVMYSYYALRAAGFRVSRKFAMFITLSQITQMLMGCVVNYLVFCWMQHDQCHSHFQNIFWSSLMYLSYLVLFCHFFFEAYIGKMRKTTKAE
# Experiment: LCE enzyme activity-inhibitory test
# Format: biochemical
# Details: [14C]-malonyl CoA / palmitoyl CoA substrate, 37° C., 90 minutes
# Description: Pharmacological Test Example 1 (LCE Enzyme Activity-inhibitory Test)
# A test compound was dissolved in dimethyl sulfoxide (DMSO to be 10 mM), and then diluted with DMSO to prepare a 1000-fold concentrated solution of the test concentration. An improved Moon et al's method (J. Biol. Chem., Vol. 276, pp. 45358-45366, 2001) was employed for the LCE enzyme activity-inhibitor test. Concretely, the diluted compound was applied to a 96-well assay plate (Corning, 96-well assay block) in an amount of 1.0 μL/well; 50 μL of a phosphate buffer solution (100 mM potassium phosphate buffer, pH 6.5), and 25 μL of a substrate solution (100 mM potassium phosphate buffer (pH 6.5), 4.0 μM rotenone, 80 μM fatty acid-free bovine serum albumin, 160 μM palmitoyl CoA, 80 μM malonyl CoA, 3.5 μM [^14C]-malonyl CoA (1.92 GBq/mmol, by Amersham)) were added to each well; 25 μL of an enzyme solution (100 mM potassium phosphate buffer (pH 6.5), 100 μg/mL human LCE) was added thereto; the top of the plate was airtightly sealed up; and this was incubated with gently shaking and stirring at 37° C. for 90 minutes. Next, 100 μL of 5 M hydrochloric acid was added to each well, and the assay plate was stirred at room temperature for 5 minutes to stop the enzyme reaction with hydrolyzing the acyl CoA. Next, the enzyme reaction solution in each well was adsorbed by each well of a 96-well GF/C filter plate (Perkin Elmer Unifilter 96 GF/C); the individual wells were washed with water to remove the non-adsorbed malonyl CoA; and the GF/C filter plate was dried at 50° C. for 60 minutes. Next, 30 μL of a scintillator (Perkin Elmer Microscinti 0) was added to each well; then the top of the plate was sealed up; and the fixed [^14C] radioactivity was measured with a microplate scintillation counter (Perkin Elmer TopCount) to be the enzyme activity. The human LCE enzyme-inhibitory activity of the test compound was calculated, based on the radioactivity of the DMSO-added well with no test compound therein as a control.
row,IC50,SMILES
1,13 nM,"CC(C)Oc1cc(NC(=O)c2cccc(S(=O)(=O)N3CCC(F)(F)CC3)c2)[nH]n1 [Example 68, 5-({3-[(4,4-difluoropiperidin-1-yl)sulfonyl]benzoyl}amino)-3-isopropoxy-1H-pyrazole hydrochloride]"
2,2.3 nM,"CC(C)Oc1cc(NC(=O)c2cccc(S(=O)(=O)N3CCCCC3)c2)[nH]n1 [Example 69, 3-Isopropoxy-5-{[3-(piperidin-1-ylsulfonyl)benzoyl}amino]-1H-pyrazole hydrochloride]"
3,6.8 nM,"CC(C)Oc1cc(NC(=O)c2cccc(S(=O)(=O)N3CCCC3)c2)[nH]n1 [Example 70, N-(3-isopropoxy-1H-pyrazol-5-yl)-3-(pyrrolidin-1-ylsulfonyl)benzamide hydrochloride]"
4,14000 nM,"O=C(Nc1ccc(F)cc1)c1cccc(S(=O)(=O)N2CCCCC2)c1 [Example 71, N-(4-fluorophenyl)-3-(piperidin-1-ylsulfonyl)benzamide]"
5,1200 nM,"O=C(Nc1ccc(C(F)(F)F)cc1)c1cccc(S(=O)(=O)N2CCCCC2)c1 [Example 72, 3-(Piperidin-1-ylsulfonyl)-N-[4-(trifluoromethyl)phenyl]benzamide]"
6,5500 nM,"O=C(NCc1ccccc1)c1cccc(S(=O)(=O)N2CCCCC2)c1 [Example 73, N-benzyl-3-(piperidin-1-ylsulfonyl)benzamide]"
7,34 nM,"CC(C)c1ccc(NC(=O)c2cccc(S(=O)(=O)N3CCCCC3)c2)cc1 [Example 77, N-(4-isopropylphenyl)-3-(piperidin-1-ylsulfonyl)benzamide]"
8,7900 nM,"O=C(NCCc1ccccc1)c1cccc(S(=O)(=O)N2CCCCC2)c1 [Example 78, N-(2-phenylethyl)-3-(piperidin-1-ylsulfonyl)benzamide]"
9,2200 nM,"CSc1ccc(NC(=O)c2cccc(S(=O)(=O)N3CCCCC3)c2)cc1 [Example 79, N-[4-(methylthio)phenyl]-3-(piperidin-1-ylsulfonyl)benzamide]"
10,1900 nM,"COc1cccc(NC(=O)c2cccc(S(=O)(=O)N3CCCCC3)c2)c1 [Example 81, N-(3-methoxyphenyl)-3-(piperidin-1-ylsulfonyl)benzamide]"
11,7300 nM,"O=C(Nc1ccon1)c1cccc(S(=O)(=O)N2CCCCC2)c1 [Example 82, N-isoxazol-3-yl-3-(piperidin-1-ylsulfonyl)benzamide]"
12,5000 nM,"O=C(N[C@H]1CCCc2ccccc21)c1cccc(S(=O)(=O)N2CCCCC2)c1 [Example 83, 3-(Piperidin-1-ylsulfonyl)-N-[(1S)-1,2,3,4-tetrahydronaphthalen-1-yl]benzamide]"
13,2600 nM,"Cc1ccc(NC(=O)c2cccc(S(=O)(=O)N3CCCCC3)c2)cc1 [Example 84, N-(4-methylphenyl)-3-(piperidin-1-ylsulfonyl)benzamide]"
14,6000 nM,"O=C(NC1CCc2ccccc21)c1cccc(S(=O)(=O)N2CCCCC2)c1 (stereo not shown) [Example 85, N-(2,3-dihydro-1H-inden-1-yl)-3-(piperidin-1-ylsulfonyl)benzamide]"
15,3000 nM,"O=C(NCCCc1ccccc1)c1cccc(S(=O)(=O)N2CCCCC2)c1 [Example 86, N-(3-phenylpropyl)-3-(piperidin-1-ylsulfonyl)benzamide]"
16,210 nM,"O=C(Nc1ccc(Oc2ccccc2)cc1)c1cccc(S(=O)(=O)N2CCCCC2)c1 [Example 87, N-(4-phenoxyphenyl)-3-(piperidin-1-ylsulfonyl)benzamide]"

row,SMILES,IC50
1,"O=C(Nc1ccccn1)c1cccc(S(=O)(=O)N2CCCCC2)c1 [Example 74, 2-{[3-(Piperidin-1-ylsulfonyl)benzoyl}amino]pyridine trifluoroacetate]",4900 nM
2,"O=C(Nc1cccc2cnccc12)c1cccc(S(=O)(=O)N2CCCCC2)c1 [Example 76, 5-{[3-(piperidin-1-ylsulfonyl)benzoyl]amino}isoquinoline trifluoroacetate]",2600 nM
3,"COc1ccccc1NC(=O)c1cccc(S(=O)(=O)N2CCCCC2)c1 [Example 80, N-(2-methoxyphenyl)-3-(piperidin-1-ylsulfonyl)benzamide]",44 nM
